According to patent USRE49742E1, “Drug delivery system for administration of poorly water soluble pharmaceutically active substances” (Vivesto AB, priority 2007, dated 2023):

What was measured:
[1] = cited from earlier work
[2] = Solubility of calcium salt in water (concentration in filtered solution, UV method); assay type: physicochemical; conditions: concentration in solution filtered through 0.2 μm filter
Experimental: Aqueous solutions of a sodium salt of the methyl ester of N-all-trans-retinoyl cysteic acid (5 ml, 15 mg/ml) and calcium chloride (3 ml, 30 mg/ml) were mixed in a 10 ml test tube. During the mixing a fine precipitation emerged. The precipitate was separated by centrifugation of the test tube at 3000 rpm for 10 min. The supernatant was removed and the precipitate was shaken with 8 ml of water followed by a new centrifugation. After three additional washing procedures as described above the supernatant was filtered through a 0.2 μm filter in order to remove possible large aggregates of the product. […] The reaction is illustrated by the below general scheme involving chlorides of any polyvalent metal ions, not only calcium ions.

| Compound | Bioavailability at oral administration [1] | solubility [2] |
| --- | --- | --- |
| CO[C@H]1C[C@@H]2CC[C@@H](C)[C@@](O)(O2)C(=O)C(=O)N2CCCC[C@H]2C(=O)O[C@H]([C@H](C)C[C@@H]2CC[C@@H](O)[C@H](OC)C2)CC(=O)[C@H](C)/C=C(\C)[C@@H](O)[C@@H](OC)C(=O)[C@H](C)C[C@H](C)/C=C/C=C/C=C/1C [sirolimus] | about 20% | – |
| C=CC[C@@H]1/C=C(\C)C[C@H](C)C[C@H](OC)[C@H]2O[C@@](O)(C(=O)C(=O)N3CCCC[C@H]3C(=O)O[C@H](/C(C)=C/[C@@H]3CC[C@@H](O)[C@H](OC)C3)[C@H](C)[C@@H](O)CC1=O)[C@H](C)C[C@@H]2OC [tacrolimus] | about 20% | – |
| CO[C@H]1C[C@@H]2CC[C@@H](C)[C@@](O)(O2)C(=O)C(=O)N2CCCC[C@H]2C(=O)O[C@H]([C@H](C)C[C@@H]2CC[C@@H](OCCO)[C@H](OC)C2)CC(=O)[C@H](C)/C=C(\C)[C@@H](O)[C@@H](OC)C(=O)[C@H](C)C[C@H](C)/C=C/C=C/C=C/1C [everolimus] | about 20% | – |
| COC(=O)C(CS(=O)(=O)[O-])NC(=O)/C=C(C)/C=C/C=C(C)/C=C/C1=C(C)CCCC1(C)C.COC(=O)C(CS(=O)(=O)[O-])NC(=O)/C=C(C)/C=C/C=C(C)/C=C/C1=C(C)CCCC1(C)C.[Ca+2] (stereo not drawn) [calcium salt of the methyl ester of N-all-trans-retinoyl cysteic acid] | – | 0.2 mg/mL |
